# Key:
# Cataleptogenic activity = conditions: rat, in vivo, ip; Wistar female rats; from total points of the maximum appearance of catatonia
# Procedure: (2) Cataleptogenic Activity
# The test was performed according to the method described by W. Wirth et al. in "Archives Internationales de Pharmacodynamie et de Therapie", vol, 115, 1 ff (1958).
# Groups of 5 Wistar female rats each were used. […] The ED50 was determined from total points of the maximum appearance of catatonia.
# [1] = test system: apomorphine-induced vomiting; test: Effect on apomorphine-induced vomiting; assay type: in vivo; conditions: Canis lupus familiaris, po, 2 hours prior to apomorphine hydrochloride (0.1 mg/kg, s.c.); incidence of vomiting checked for 2 hours; beagle dogs
# Procedure: (1) Effect on apomorphine-induced vomiting
# The test was performed according to the method described by M. Nakanishi et al: in "Arzneimittel-Forschung", vol. 21, 391 ff (1971).
# Groups of 5-10 beagle dogs of both sexes each were used. The test compound was administered orally 2 hours prior to the treatment with apomorphine hydrochloride (0.1 mg/kg, s.c.). The incidence of vomiting was checked for 2 hours, and the ED50 (50% effective dose) was determined.
smiles,measurement,setting,value
"Cl.Cl.O.O=C1NC2CCCCN2C12CCN(CCCN1c3ccccc3CCc3ccccc31)CC2 (centres unmarked) [A, 1'-[3-(10,11-dihydro-5H-dibenz[b,f]azepin-5-yl)propyl]-1,2,3,5,6,7,8,8a-octahydro-2-oxo-imidazo[1,2-a]pyridine-3-spiro-4'-piperidine dihydrochloride monohydrate]",ED50,Cataleptogenic activity,> 50 mg/kg
same,ED50,[1],2.5 mg/kg
"Cl.Cl.O.O=C1NC2CCCCN2C12CCN(CCCN1c3ccccc3CCc3ccc(Cl)cc31)CC2 (centres unmarked) [B, 1'-[3-(3-chloro-10,11-dihydro-5H-dibenz[b,f]azepin-5-yl)propyl]-1,2,3,5,6,7,8,8a-octahydro-2-oxo-imidazo[1,2-a]pyridine-3-spiro-4'-piperidine dihydrochloride monohydrate]",ED50,Cataleptogenic activity,> 50 mg/kg
same,ED50,[1],0.5 mg/kg
"Cl.Cl.O.O=C1N=C2CCCCN2C12CCN(CCCN1c3ccccc3CCc3ccccc31)CC2 [C, 1'-[3-(10,11-dihydro-5H-dibenz[b,f]azepin-5-yl)propyl]-2,3,5,6,7,8-hexahydro-2-oxo-imidazo[1,2-a]pyridine-3-spiro-4'-piperidine dihydrochloride monohydrate]",ED50,Cataleptogenic activity,> 50 mg/kg
same,ED50,[1],2 mg/kg
"CN(C)CCCN1c2ccccc2Sc2ccc(Cl)cc21 [Chlorpromazine, reference compound]",ED50,Cataleptogenic activity,12 mg/kg
same,ED50,[1],5.1 mg/kg
